From patent US20210382058A1, “PATIENT SELECTION FOR TREATMENT OF MYC POSITIVE CANCERS WITH INDENOISOQUINOLINES” (Purdue Research Foundation, priority 2020, published 2021)
Read-outs that look alike come from different tables or passages of the source.

Experiments:
[1] = tested on: MYC protein expression in MCF-7 breast cancer cells; assay: Western blotting of MYC protein level in MCF-7 cells; assay type: cell-based, human; conditions: Homo sapiens, MCF7; western blotting, MCF-7 cells, 0.5, 1, 2, and 4 μM, 24 hours; read-out: MYC Inhibition
In short: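 MCF-7 cells were exposed to compounds at 0.5, 1, 2 and 4 μM for 24 hours at 37° C. MYC was detected by immunoblot with ECL, using rabbit anti-MYC (1:1000) and anti-GAPDH (1:2000) as loading control.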

NCI-60 cancer cell lines = assay: NCI-60 cancer cell line drug screen (GI50, MGM); assay type: cell-based, human; conditions: Homo sapiens; for GI50: read-out: Antiproliferative Activities [GI50 (μM)]
Description: Cancer cells were incubated with the test compounds at five concentrations ranging from 100 μM to 10 nM for 48 h. […] The approximate average of GI50 values across the entire panel of NCI-60 cancer cell lines for each compound was recorded as the MGM value.

human topoisomerase I = target: T1, human topoisomerase I (Homo sapiens, UniProt P11387); conditions: relative topoisomerase I inhibition levels, previously determined, six levels (0 - 5, +++++ = 5); cited from earlier work
T1 sequence (P11387 1-765): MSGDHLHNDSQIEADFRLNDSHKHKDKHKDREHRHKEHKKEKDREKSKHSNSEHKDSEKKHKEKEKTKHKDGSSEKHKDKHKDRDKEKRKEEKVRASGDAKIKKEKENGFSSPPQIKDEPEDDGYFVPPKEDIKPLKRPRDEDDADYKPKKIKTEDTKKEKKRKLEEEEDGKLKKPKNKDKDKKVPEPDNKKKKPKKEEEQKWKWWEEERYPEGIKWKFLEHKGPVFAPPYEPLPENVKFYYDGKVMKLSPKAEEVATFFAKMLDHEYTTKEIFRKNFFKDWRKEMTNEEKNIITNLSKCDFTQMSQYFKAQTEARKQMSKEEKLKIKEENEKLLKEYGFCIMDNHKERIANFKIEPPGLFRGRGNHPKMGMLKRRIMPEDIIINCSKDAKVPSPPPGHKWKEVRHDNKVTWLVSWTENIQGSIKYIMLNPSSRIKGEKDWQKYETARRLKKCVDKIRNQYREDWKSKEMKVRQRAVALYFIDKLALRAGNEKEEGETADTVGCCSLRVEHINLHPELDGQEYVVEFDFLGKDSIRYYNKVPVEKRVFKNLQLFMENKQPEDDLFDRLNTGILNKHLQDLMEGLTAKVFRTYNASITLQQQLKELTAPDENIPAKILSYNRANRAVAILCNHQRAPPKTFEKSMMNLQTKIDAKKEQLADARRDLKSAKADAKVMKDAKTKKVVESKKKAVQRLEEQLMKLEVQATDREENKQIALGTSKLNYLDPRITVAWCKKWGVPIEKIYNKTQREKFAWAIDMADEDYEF

With `CNCCCn1c2c(c3ccc(Cl)cc3c1=O)C(=O)c1cc(OC)cnc1-2` [Compound 3] the minimal effective concentration [1] was 0.5 to 1 µM, the GI50 (NCI-60 cancer cell lines; 786-0, Renal Cancer, 786-0) was 0.32 µM and the GI50 (NCI-60 cancer cell lines; A498, Renal Cancer, A498) was 0.53 µM. It also gave a GI50 (NCI-60 cancer cell lines; A549, Non-Small Cell Lung Cancer, A549/ATCC) of 0.45 µM, a GI50 (NCI-60 cancer cell lines; ACHN, Renal Cancer, ACHN) of 0.22 µM and a GI50 (NCI-60 cancer cell lines; BT-549, Breast Cancer, BT-549) of 0.65 µM. It also gave a GI50 (NCI-60 cancer cell lines; CAKI-1, Renal Cancer, CAKI-1) of 0.06 µM, a GI50 (NCI-60 cancer cell lines; CCRF-CEM, Leukemia, CCRF-CEM) of 0.06 µM and a GI50 (NCI-60 cancer cell lines; COLO 205, Colon Cancer, COLO 205) of 0.5 µM. It also gave a GI50 (NCI-60 cancer cell lines; DU-145, Prostate Cancer, DU-145) of 0.33 µM, a GI50 (NCI-60 cancer cell lines; EKVX, Non-Small Cell Lung Cancer, EKVX) of 1.2 µM and a GI50 (NCI-60 cancer cell lines; HCC 2998, Colon Cancer, HCC-2998) of 1.41 µM. The GI50 (NCI-60 cancer cell lines; HCT-15, Colon Cancer, HCT-15) was 1.11 µM, the GI50 (NCI-60 cancer cell lines; HCT-116, Colon Cancer, HCT-116) was 0.55 µM and the GI50 (NCI-60 cancer cell lines; HL-60, Leukemia, HL-60(TB)) was 0.6 µM. For the same compound, the GI50 (NCI-60 cancer cell lines; HOP-62, Non-Small Cell Lung Cancer, HOP-62) was 0.22 µM, the GI50 (NCI-60 cancer cell lines; HOP-92, Non-Small Cell Lung Cancer, HOP-92) was 1.19 µM and the GI50 (NCI-60 cancer cell lines; HT-29, Colon Cancer, HT29) was 1.08 µM. The GI50 (NCI-60 cancer cell lines; Hs-578T, Breast Cancer, HS 578T) was 1.84 µM, the GI50 (NCI-60 cancer cell lines; IGROV-1, Ovarian Cancer, IGROV1) was 1.14 µM and the GI50 (NCI-60 cancer cell lines; K562, Leukemia, K-562) was 1.14 µM. The GI50 (NCI-60 cancer cell lines; KM12, Colon Cancer, KM12) was 1.1 µM, the GI50 (NCI-60 cancer cell lines; LOX IMVI, Melanoma, LOX IMVI) was 0.16 µM and the GI50 (NCI-60 cancer cell lines; Leukemia, SR) was 0.14 µM. For the same compound, the GI50 (NCI-60 cancer cell lines; MCF7, Breast Cancer, MCF7) was 0.05 µM, the GI50 (NCI-60 cancer cell lines; MDA-MB-231, Breast Cancer, MDA-MB-231/ATCC) was 1.62 µM and the GI50 (NCI-60 cancer cell lines; MDA-MB-435, Melanoma, MDA-MB-435) was 1.07 µM. The GI50 (NCI-60 cancer cell lines; MDA-MB-468, Breast Cancer, MDA-MB-468) was 1.28 µM, the GI50 (NCI-60 cancer cell lines; MOLT-4, Leukemia, MOLT-4) was 0.04 µM and the GI50 (NCI-60 cancer cell lines; Malme-3M, Melanoma, MALME-3M) was 1.48 µM. It also gave a GI50 (NCI-60 cancer cell lines; Melanoma, M14) of 0.57 µM, a GI50 (NCI-60 cancer cell lines; NCI-H23, Non-Small Cell Lung Cancer, NCI-H23) of 0.92 µM and a GI50 (NCI-60 cancer cell lines; NCI-H226, Non-Small Cell Lung Cancer, NCI-H226) of 1.35 µM. The GI50 (NCI-60 cancer cell lines; NCI-H322M, Non-Small Cell Lung Cancer, NCI-H322M) was 1.28 µM, the GI50 (NCI-60 cancer cell lines; NCI-H460, Non-Small Cell Lung Cancer, NCI-H460) was 0.05 µM and the GI50 (NCI-60 cancer cell lines; NCI-H522, Non-Small Cell Lung Cancer, NCI-H522) was 0.37 µM. For the same compound, the GI50 (NCI-60 cancer cell lines; OVCAR-3, Ovarian Cancer, OVCAR-3) was 1.41 µM, the GI50 (NCI-60 cancer cell lines; OVCAR-4, Ovarian Cancer, OVCAR-4) was 1.27 µM and the GI50 (NCI-60 cancer cell lines; OVCAR-5, Ovarian Cancer, OVCAR-5) was 1.69 µM. The GI50 (NCI-60 cancer cell lines; OVCAR-8, Ovarian Cancer, OVCAR-8) was 1.18 µM, the GI50 (NCI-60 cancer cell lines; Ovarian Cancer, NCl/ADR-RES) was 0.54 µM and the GI50 (NCI-60 cancer cell lines; Prostate Cancer, PC-3) was 1.02 µM. The GI50 (NCI-60 cancer cell lines; RPMI-8226, Leukemia, RPMI-8226) was 1.47 µM, the GI50 (NCI-60 cancer cell lines; RXF 393, Renal Cancer, RXF 393) was 1.3 µM and the GI50 (NCI-60 cancer cell lines; Renal Cancer, U0-31) was 1.08 µM. For the same compound, the GI50 (NCI-60 cancer cell lines; SF-268, CNS Cancer, SF-268) was 0.4 µM, the GI50 (NCI-60 cancer cell lines; SF-295, CNS Cancer, SF-295) was 0.13 µM and the GI50 (NCI-60 cancer cell lines; SF-539, CNS Cancer, SF-539) was 0.73 µM. It also gave a GI50 (NCI-60 cancer cell lines; SK-MEL-2, Melanoma, SK-MEL-2) of 13.2 µM, a GI50 (NCI-60 cancer cell lines; SK-MEL-5, Melanoma, SK-MEL-5) of 1.12 µM and a GI50 (NCI-60 cancer cell lines; SK-MEL-28, Melanoma, SK-MEL-28) of 1.62 µM. It also gave a GI50 (NCI-60 cancer cell lines; SK-OV-3, Ovarian Cancer, SK-OV-3) of 0.66 µM, a GI50 (NCI-60 cancer cell lines; SN12C, Renal Cancer, SN12C) of 1.18 µM and a GI50 (NCI-60 cancer cell lines; SNB-19, CNS Cancer, SNB-19) of 0.61 µM. For the same compound, the GI50 (NCI-60 cancer cell lines; SNB-75, CNS Cancer, SNB-75) was 0.26 µM, the GI50 (NCI-60 cancer cell lines; SW-620, Colon Cancer, SW-620) was 0.08 µM and the GI50 (NCI-60 cancer cell lines; T47D, Breast Cancer, T-47D) was 1.12 µM. It also gave a GI50 (NCI-60 cancer cell lines; U-251, CNS Cancer, U251) of 0.3 µM, a GI50 (NCI-60 cancer cell lines; UACC-62, Melanoma, UACC-62) of 0.57 µM and a GI50 (NCI-60 cancer cell lines; UACC-257, Melanoma, UACC-257) of 2.24 µM. For the same compound, the mean GI50 across NCI-60 panel (MGM) (NCI-60 cancer cell lines; average of GI50 values across the entire panel of NCI-60 cancer cell lines) was 600 nM and the “Top1 Inhibiton” value (human topoisomerase I) was “++ (medium inhibition, ++, MYC expression inhibited at 2.0 μM, or no clear dose-dependent MYC inhibition)”.
